Consider four compounds from ChEMBL document CHEMBL5247608, “HIV-1 gp120-CXCR4 recognition probed with synthetic nanomolar affinity D-peptides containing fragments of gp120 V3 loop” (Eur J Med Chem, 2022).

The target of data set [1] is C-C chemokine receptor type 5 (Homo sapiens) (UniProt P51681). The data set can be described thus: Displacement of C-45523 from CCR5 (unknown origin) expressed in CHO cells at 50 uM incubated for 40 mins by competitive binding assay based spectrophotometric method. The format is cell-based.
C-C chemokine receptor type 5 (Homo sapiens), sequence (P51681 whole entry, looked up): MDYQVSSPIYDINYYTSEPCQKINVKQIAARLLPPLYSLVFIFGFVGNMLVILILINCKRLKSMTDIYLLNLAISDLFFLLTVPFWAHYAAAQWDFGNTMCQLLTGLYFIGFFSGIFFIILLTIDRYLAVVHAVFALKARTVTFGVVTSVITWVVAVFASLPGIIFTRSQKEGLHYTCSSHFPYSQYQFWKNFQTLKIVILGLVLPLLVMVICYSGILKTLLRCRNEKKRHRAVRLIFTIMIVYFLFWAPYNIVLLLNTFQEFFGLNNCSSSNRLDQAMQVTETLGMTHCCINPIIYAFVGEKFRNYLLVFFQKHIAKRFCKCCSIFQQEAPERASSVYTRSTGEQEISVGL
The target in data set [2] is T1, C-X-C chemokine receptor type 4 (Homo sapiens, UniProt P61073). The data set can be described thus: Displacement of 12G5 mAb from CXCR4 (unknown origin) expressed in CHO cells incubated for 40 mins by spectrophotometric method. Type of data set: cell-based.
T1 sequence (P61073 whole entry): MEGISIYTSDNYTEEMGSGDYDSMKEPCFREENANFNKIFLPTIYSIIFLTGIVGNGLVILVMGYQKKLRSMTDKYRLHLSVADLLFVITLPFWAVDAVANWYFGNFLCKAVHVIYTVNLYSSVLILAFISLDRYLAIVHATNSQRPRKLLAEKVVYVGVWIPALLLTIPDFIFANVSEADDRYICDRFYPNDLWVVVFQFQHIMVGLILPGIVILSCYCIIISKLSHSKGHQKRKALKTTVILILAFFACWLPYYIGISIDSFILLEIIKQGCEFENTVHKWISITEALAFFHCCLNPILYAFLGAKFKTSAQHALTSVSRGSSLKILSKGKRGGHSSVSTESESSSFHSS
The test system of data set [3] is Human immunodeficiency virus 1. The data set can be described thus: Antiviral activity against HIV-1 X4 NL4-3 infected in human PBMC assessed as inhibition of viral replication by measuring reduction in p24 antigen level at 10 uM measured after 5 days by ELISA. The format is functional, organism-based. To be noted: time 5.0 day.
Data set [4] is described as follows: Cytotoxicity against human PBMC assessed as reduction in cell viability at 0.016 to 10 uM incubated for 5 days by CellTiter-Blue assay. Type of data set: toxicity, cell-based. The settings on record: 120 h, dose 0.016-10 µM, time 5 day.
Data set [5] has as its system Human immunodeficiency virus 1. The data set can be described thus: Antiviral activity against HIV-1 R5 Bal-6 infected in human PBMC assessed as inhibition of viral replication by measuring reduction in p24 antigen level at 0.1 to 10 uM measured after 5 days by ELISA. To be noted: dose 0.1-10 µM, time 5.0 day. The format is functional, organism-based.
For data set [6], the system named is C-X-C chemokine receptor type 4 (Homo sapiens), P61073 [F87A]. The data set can be described thus: Displacement of 12G5 mAb from CXCR4 F87A mutant (unknown origin) expressed in CHO cells at 500 nM incubated for 40 mins by spectrophotometric method. The format is cell-based.
C-X-C chemokine receptor type 4 (Homo sapiens), P61073 [F87A], sequence (P61073 whole entry F87A): as the sequence (P61073 whole entry) above, with F87A counted along it
Data set [7] relates to C-X-C chemokine receptor type 4 (Homo sapiens), P61073 [Y116A]. The data set can be described thus: Displacement of 12G5 mAb from CXCR4 Y116A mutant (unknown origin) expressed in CHO cells at 500 nM incubated for 40 mins by spectrophotometric method. The format is cell-based.
C-X-C chemokine receptor type 4 (Homo sapiens), P61073 [Y116A], sequence (P61073 whole entry Y116A): as the sequence (P61073 whole entry) above, with Y116A counted along it
Data set [8] concerns the target T1, C-X-C chemokine receptor type 4. The data set can be described thus: Antagonist activity against CXCR4 in human SUP-T1 cells assessed as inhibition of SDF-1alpha-induced cell migration preincubated with cells for 30 mins followed by incubation with SDF-1alpha for 3 hrs by CellTiter-96 reagent based transwell assay. The settings on record: filed as antagonist, time 210.0 min.

Data set [9] concerns C-X-C chemokine receptor type 4 (Homo sapiens), P61073 [Y45A]. The data set can be described thus: Displacement of 12G5 mAb from CXCR4 Y45A mutant (unknown origin) expressed in CHO cells at 500 nM incubated for 40 mins by spectrophotometric method. The format is cell-based. To be noted: filed as antagonist.
C-X-C chemokine receptor type 4 (Homo sapiens), P61073 [Y45A], sequence (P61073 whole entry Y45A): as the sequence (P61073 whole entry) above, with Y45A counted along it
Data set [10] addresses T1, C-X-C chemokine receptor type 4. The data set can be described thus: Antagonist activity against CXCR4 in human SUP-T1 cells assessed as inhibition of SDF-1alpha-induced intracellular calcium mobilization by Fluo-4AM dye based fluorescence analysis. The format is cell-based. The settings on record: filed as antagonist, dose 0.01-10 µM.
Data set [11] has as its system C-X-C chemokine receptor type 4 (Homo sapiens), P61073 [W161A]. The data set can be described thus: Displacement of 12G5 mAb from CXCR4 W161A mutant (unknown origin) expressed in CHO cells at 500 nM incubated for 40 mins by spectrophotometric method. Type of data set: cell-based.
The subject of data set [12] is C-X-C chemokine receptor type 4 (Homo sapiens), P61073 [D193A]. The data set can be described thus: Displacement of 12G5 mAb from CXCR4 D193A mutant (unknown origin) expressed in CHO cells at 500 nM incubated for 40 mins by spectrophotometric method. The format is cell-based.
In data set [13] the test system is C-X-C chemokine receptor type 4 (Homo sapiens), P61073 [H113A]. The data set can be described thus: Displacement of 12G5 mAb from CXCR4 H113A mutant (unknown origin) expressed in CHO cells at 500 nM incubated for 40 mins by spectrophotometric method. Type of data set: cell-based.
C-X-C chemokine receptor type 4 (Homo sapiens), P61073 [H113A], sequence (P61073 whole entry H113A): as the sequence (P61073 whole entry) above, with H113A counted along it
In data set [14] the test system is C-X-C chemokine receptor type 4 (Homo sapiens), P61073 [D262N]. The data set can be described thus: Displacement of 12G5 mAb from CXCR4 D262N mutant (unknown origin) expressed in CHO cells at 500 nM incubated for 40 mins by spectrophotometric method. The format is cell-based. The settings on record: filed as antagonist.
C-X-C chemokine receptor type 4 (Homo sapiens), P61073 [D262N], sequence (P61073 whole entry D262N): as the sequence (P61073 whole entry) above, with D262N counted along it
The subject of data set [15] is C-X-C chemokine receptor type 4 (Homo sapiens), P61073 [T117A]. The data set can be described thus: Displacement of 12G5 mAb from CXCR4 T117A mutant (unknown origin) expressed in CHO cells at 500 nM incubated for 40 mins by spectrophotometric method. Type of data set: cell-based. The settings on record: filed as antagonist.
For data set [16], the system named is C-X-C chemokine receptor type 4 (Homo sapiens), P61073 [N119A]. The data set can be described thus: Displacement of 12G5 mAb from CXCR4 N119A mutant (unknown origin) expressed in CHO cells at 500 nM incubated for 40 mins by spectrophotometric method. Type of data set: cell-based.
C-X-C chemokine receptor type 4 (Homo sapiens), P61073 [N119A], sequence (P61073 whole entry N119A): as the sequence (P61073 whole entry) above, with N119A counted along it
Data set [17] has as its system C-X-C chemokine receptor type 4 (Homo sapiens), P61073 [E288Q]. The data set can be described thus: Displacement of 12G5 mAb from CXCR4 E288Q mutant (unknown origin) expressed in CHO cells at 500 nM incubated for 40 mins by spectrophotometric method. The format is cell-based. The settings on record: filed as antagonist.
The subject of data set [18] is C-X-C chemokine receptor type 4 (Homo sapiens), P61073 [E288D]. The data set can be described thus: Displacement of 12G5 mAb from CXCR4 E288D mutant (unknown origin) expressed in CHO cells at 500 nM incubated for 40 mins by spectrophotometric method. Type of data set: cell-based.
The target of data set [19] is T1, C-X-C chemokine receptor type 4. The data set can be described thus: Antagonist activity against CXCR4 in human SUP-T1 cells assessed as inhibition of SDF-1alpha-induced intracellular calcium mobilization at 10 uM by Fluo-4AM dye based fluorescence analysis. The format is cell-based. To be noted: filed as antagonist.
The test system of data set [20] is C-X-C chemokine receptor type 4 (Homo sapiens), P61073 [E288A]. The data set can be described thus: Displacement of 12G5 mAb from CXCR4 E288A mutant (unknown origin) expressed in CHO cells at 500 nM incubated for 40 mins by spectrophotometric method. The format is cell-based.
C-X-C chemokine receptor type 4 (Homo sapiens), P61073 [E288A], sequence (P61073 whole entry E288A): as the sequence (P61073 whole entry) above, with E288A counted along it
Data set [21] deals with T1, C-X-C chemokine receptor type 4. The data set can be described thus: Antagonist activity against EGFP-tagged CXCR4 (unknown origin) transfected in CHO cells assessed as inhibition of SDF-1alpha-induced receptor internalization at 10 uM preincubated for 10 mins followed by SDF-1alpha addition by confocal microscopy. The format is cell-based. To be noted: filed as antagonist.

The target is the same in data set [22]. The data set can be described thus: Antagonist activity against CXCR4 in human SUP-T1 cells assessed as inhibition of SDF-1alpha-induced cell migration at 10 uM preincubated with cells for 30 mins followed by incubation with SDF-1alpha for 3 hrs by CellTiter-96 reagent based transwell assay. The settings on record: filed as antagonist, time 210.0 min.
Data set [23] relates to C-X-C chemokine receptor type 4 (Homo sapiens), P61073 [W94A]. The data set can be described thus: Displacement of 12G5 mAb from CXCR4 W94A mutant (unknown origin) expressed in CHO cells at 500 nM incubated for 40 mins by spectrophotometric method. The format is cell-based.
C-X-C chemokine receptor type 4 (Homo sapiens), P61073 [W94A], sequence (P61073 whole entry W94A): as the sequence (P61073 whole entry) above, with W94A counted along it
The target of data set [24] is T1, C-X-C chemokine receptor type 4. The data set can be described thus: Antagonist activity against EGFP-tagged CXCR4 (unknown origin) transfected in CHO cells assessed as inhibition of SDF-1alpha-induced receptor internalization at 0.01 to 10 uM preincubated for 10 mins followed by SDF-1alpha addition by confocal microscopy. The format is cell-based. The settings on record: filed as antagonist, dose 0.01-10 µM.

The test system of data set [25] is C-X-C chemokine receptor type 4 (Homo sapiens), P61073 [D97A]. The data set can be described thus: Displacement of 12G5 mAb from CXCR4 D97A mutant (unknown origin) expressed in CHO cells at 500 nM incubated for 40 mins by spectrophotometric method. Type of data set: cell-based.
C-X-C chemokine receptor type 4 (Homo sapiens), P61073 [D97A], sequence (P61073 whole entry D97A): as the sequence (P61073 whole entry) above, with D97A counted along it
In data set [26] the test system is C-X-C chemokine receptor type 4 (Homo sapiens), P61073 [W195A]. The data set can be described thus: Displacement of 12G5 mAb from CXCR4 W195A mutant (unknown origin) expressed in CHO cells at 500 nM incubated for 40 mins by spectrophotometric method. The format is cell-based.
C-X-C chemokine receptor type 4 (Homo sapiens), P61073 [W195A], sequence (P61073 whole entry W195A): as the sequence (P61073 whole entry) above, with W195A counted along it

SMILES strings stand for the structures. The source made the active and inactive calls. The calls are words filed in the database; no cut-off is given here. Where a SMILES comes first, the peptide text is derived from it. [ ]: non-standard residue; d: D form.

C-X-C chemokine receptor type 4 (Homo sapiens), P61073 [W161A], sequence (P61073 whole entry W161A): as the sequence (P61073 whole entry) above, with W161A counted along it
C-X-C chemokine receptor type 4 (Homo sapiens), P61073 [E288D], sequence (P61073 whole entry E288D): as the sequence (P61073 whole entry) above, with E288D counted along it
C-X-C chemokine receptor type 4 (Homo sapiens), P61073 [T117A], sequence (P61073 whole entry T117A): as the sequence (P61073 whole entry) above, with T117A counted along it
C-X-C chemokine receptor type 4 (Homo sapiens), P61073 [E288Q], sequence (P61073 whole entry E288Q): as the sequence (P61073 whole entry) above, with E288Q counted along it
C-X-C chemokine receptor type 4 (Homo sapiens), P61073 [D193A], sequence (P61073 whole entry D193A): as the sequence (P61073 whole entry) above, with D193A counted along it

For `CC(C)C[C@@H](N)C(=O)NCC(=O)N[C@H](C)C(=O)N[C@H](CO)C(=O)N[C@H](Cc1c[nH]c2ccccc12)C(=O)N[C@H](Cc1cnc[nH]1)C(=O)N[C@H](CCCNC(=N)N)C(=O)N1CCC[C@@H]1C(=O)N[C@H](CC(=O)O)C(=O)N[C@H](CCCCN)C(=O)N[C@H](CCCCN)C(=O)N[C@H](CCCNC(=N)N)C(=O)N(CCCCCC(=O)O)[C@@H](CCCCN)C(=O)N[C@@H](CCCNC(=N)N)C(=O)N[C@@H](CCCCN)C(=O)N[C@H](CS)C(=O)N[C@H](C(=O)N[C@@H](CCCNC(=N)N)C(=O)N1CCC[C@H]1C(=O)N[C@@H](CC(N)=O)C(=O)N[C@@H](CC(N)=O)C(=O)N[C@@H](CC(N)=O)C(=O)N[C@H](C(N)=O)[C@H](C)O)[C@H](C)O`, in data set [1], the inhibition came out at 10.4%. The compound also had a half-maximal inhibitory concentration (IC50) in [2] of 48 nM.
Take `CC(C)C[C@@H](N)C(=O)NCC(=O)N[C@H](C)C(=O)N[C@H](CO)C(=O)N[C@H](Cc1c[nH]c2ccccc12)C(=O)N[C@H](Cc1cnc[nH]1)C(=O)N[C@H](CCCNC(=N)N)C(=O)N1CCC[C@@H]1C(=O)N[C@H](CC(=O)O)C(=O)N[C@H](CCCCN)C(=O)N[C@H](CCCCN)C(=O)N[C@H](CCCNC(=N)N)C(=O)N(CCCCCC(=O)O)[C@@H](CCCCN[C@H](CS)C(=O)N[C@H](C(=O)N[C@@H](CCCNC(=N)N)C(=O)N1CCC[C@H]1C(=O)N[C@@H](CC(N)=O)C(=O)N[C@@H](CC(N)=O)C(=O)N[C@@H](CC(N)=O)C(=O)N[C@H](C(=O)N[C@@H](CCCCN)C(=O)N[C@@H](CCCNC(=N)N)C(N)=O)[C@H](C)O)[C@H](C)O)C(N)=O`: the result in data set [3] was Active. Moreover, the Activity result in [4] is recorded as “Non-Toxic”. Further, the IC50 in [2] amounted to 25.4 nM. Also, in data set [5], the result was inactive.
As for `CC(C)C[C@@H](N)C(=O)NCC(=O)N[C@H](C)C(=O)N[C@H](CO)C(=O)N[C@H](Cc1c[nH]c2ccccc12)C(=O)N[C@H](Cc1cnc[nH]1)C(=O)N[C@H](CCCNC(=N)N)C(=O)N1CCC[C@@H]1C(=O)N[C@H](CC(=O)O)C(=O)N[C@H](CCCCN)C(=O)N[C@H](CCCCN)C(=O)N[C@H](CCCNC(=N)N)C(=O)N(CCCCCC(=O)O)[C@@H](CCCCN)C(=O)N[C@@H](CCCNC(=N)N)C(=O)N[C@@H](CCCCN)C(=O)N[C@@H](CCC(N)=O)C(=O)N[C@@H](CCCNC(=N)N)C(=O)NCC(=O)N1CCC[C@H]1C(=O)NCC(=O)N[C@@H](CCCNC(=N)N)C(=O)N[C@@H](C)C(=O)N[C@@H](Cc1ccccc1)C(N)=O`, the outcome in [3] was Active. For the same compound, the inhibition entry in data set [6], in [7], in data set [11], in [12], in data set [13] and in data set [16] was “inactive” in each case. The inhibition result in [18], in [20], in data set [23], in [25] and in data set [26] was “inactive” in each case. The inhibition result is “Dose-Dependent Effect” in data set [8]; “Dose-Dependent Effect” in data set [10]; 100% in data set [19]; 17.2% in data set [1]; 100% in data set [21]; 100% in [22]. Also, the inhibition result in data set [9], in data set [14], in data set [15], in data set [17] and in [24] was “Active” throughout. Moreover, in [4], the Activity result is “Non-Toxic”. Further, in data set [5], the result was inactive.
On to `CC(C)C[C@@H](N)C(=O)NCC(=O)N[C@H](C)C(=O)N[C@H](CO)C(=O)N[C@H](Cc1c[nH]c2ccccc12)C(=O)N[C@H](Cc1cnc[nH]1)C(=O)N[C@H](CCCNC(=N)N)C(=O)N1CCC[C@@H]1C(=O)N[C@H](CC(=O)O)C(=O)N[C@H](CCCCN)C(=O)N[C@H](CCCCN)C(=O)N[C@H](CCCNC(=N)N)C(N)=O` (H-[dL]G[dA][dS][dW][dH][dR][dP][dD][dK][dK][dR]-NH2), for which the IC50 in [2] turned out to be 531 nM.
